From US20060052597A1, “Aryloxyalkylamine derivatives as h3 receptor ligands” (priority 2002, published 2006)
Where a name gives a salt, the structure may show the parent alone.

Target: T1, histamine H3 receptor (Homo sapiens, UniProt Q9Y5N1)
T1 construct: expressed in transfected cells; host or cells: CHO K1 cells carrying pSwitch, transfected with pGeneH3 and induced with mifepristone; clone 3H3; membrane preparation
Assay: Histamine H3 functional antagonist assay ([35S]GTPγS SPA on membranes)
Assay type: biochemical
Conditions: not given
Protocol: A membrane preparation containing histamine H3 receptors may be prepared in accordance with the following procedures:
Ligated DNA was transformed into competent DH5α E. coli host bacterial cells and plated onto Luria Broth (LB) agar containing Zeocin™ (an antibiotic which allows the selection of cells expressing the sh ble gene which is present on pGene and pSwitch) at 50 μg ml^−1. Colonies containing the religated plasmid were identified by restriction analysis. DNA for transfection into mammalian cells was prepared from 250 ml cultures of the host bacterium containing the pGeneH3 plasmid and isolated using a DNA preparation kit (Qiagen Midi-Prep) as per manufacturers guidelines (Qiagen).
CHO K1 cells previously transfected with the pSwitch regulatory plasmid (InVitrogen) were seeded at 2×10e6 cells per T75 flask in Complete Medium, containing Hams F12 (GIBCOBRL, Life Technologies) medium supplemented with 10% v/v dialysed foetal bovine serum, L-glutamine, and hygromycin (100 μg ml^−1), 24 hours prior to use. Plasmid DNA was transfected into the cells using Lipofectamine plus according to the manufacturers guidelines (InVitrogen). 48 hours post transfection cells were placed into complete medium supplemented with 500 μg ml^−1 Zeocin™.
10-14 days post selection 10 nM Mifepristone (InVitrogen), was added to the culture medium to induce the expression of the receptor.
Approximately 1×10e7 cells were examined for receptor expression by staining with a rabbit polyclonal antibody, 4a, raised against the N-terminal domain of the histamine H3 receptor, incubated on ice for 60 minutes, followed by two washes in sorting medium.
Following two further washes with Sorting Medium, cells were filtered through a 50 μm Filcon™ (BD Biosciences) and then analysed on a FACS Vantage SE Flow Cytometer fitted with an Automatic Cell Deposition Unit. […] Positively stained cells were sorted as single cells into 96-well plates, containing Complete Medium containing 500 μg ml^−1 Zeocin™ and allowed to expand before reanalysis for receptor expression via antibody and ligand binding studies.
All steps of the protocol are carried out at 4° C. and with pre-cooled reagents. The cell pellet is resuspended in 10 volumes of buffer A2 containing 50 mM N-2-hydroxyethylpiperazine-N′-2-ethanesulfonic acid (HEPES) (pH 7.40) supplemented with […] leupeptin (acetyl-leucyl-leucyl-arginal; Sigma L2884), 25 μg/ml bacitracin (Sigma B0125), 1 mM ethylenediamine tetra-acetic acid (EDTA), 1 mM phenylmethylsulfonyl fluoride (PMSF) and 2×10e-6M pepstain A (Sigma). The cells are then homogenised by 2×15 second bursts in a 1 litre glass Waring blender, followed by centrifugation at 500 g for 20 minutes. The supernatant is then spun at 48,000 g for 30 minutes. The pellet is resuspended in 4 volumes of buffer A2 by vortexing for 5 seconds, followed by homogenisation in a Dounce homogeniser (10-15 strokes). At this point the preparation is aliquoted into polypropylene tubes and stored at −70° C. […]
The plate is then incubated on a shaker at room temperature for 30 minutes followed by centrifugation for 5 minutes at 1500 rpm. The plate is read between 3 and 6 hours after completion of centrifuge run in a Wallac Microbeta counter on a 1 minute normalised tritium count protocol. Data is analysed using a 4-parameter logistic equation. Basal activity used as minimum i.e. histamine not added to well.

T1 sequence (Q9Y5N1 whole entry): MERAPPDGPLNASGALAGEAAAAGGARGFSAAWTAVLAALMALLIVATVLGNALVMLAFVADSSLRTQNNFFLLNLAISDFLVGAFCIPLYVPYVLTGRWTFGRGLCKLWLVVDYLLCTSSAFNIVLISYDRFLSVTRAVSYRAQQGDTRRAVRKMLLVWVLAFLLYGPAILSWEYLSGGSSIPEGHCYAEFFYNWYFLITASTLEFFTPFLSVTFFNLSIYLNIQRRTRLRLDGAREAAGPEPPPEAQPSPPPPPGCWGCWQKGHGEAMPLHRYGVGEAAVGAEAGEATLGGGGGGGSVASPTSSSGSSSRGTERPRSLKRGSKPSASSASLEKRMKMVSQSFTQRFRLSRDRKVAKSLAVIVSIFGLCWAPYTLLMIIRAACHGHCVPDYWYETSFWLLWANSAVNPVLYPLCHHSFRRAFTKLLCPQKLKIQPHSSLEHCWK

| SMILES | Kb [nM] |
| --- | --- |
| O=C(c1ccc(OCCCN2CCCCC2)cc1)N1CCN(C(=O)C2CCCCCC2)CC1 [Example E89, 1-[4-(3-Piperidin-1-ylpropoxy)benzoyl]-4-(cycloheptanecarbonyl)-piperazine Hydrochloride] | < 3.16 |

Same assay, conditions: membranes of CHO K1 clone 3H3 expressing human histamine H3; histamine 0.3 μM; guanosine 5'[γ35-S]thiotriphosphate 0.38 nM; read-out: pKb (converted)

| SMILES | Kb [nM] |
| --- | --- |
| O=C(N[C@H]1CCN(C(=O)c2ccc(OCCCN3CCCCC3)cc2)C1)c1ccccc1 [Example E156, (S)-N-[4-(3-Piperidin-1-ylpropoxy)benzoyl]-3-benzamidopyrrolidine Dihydrochloride] | < 3.16 |
| O=C(c1ccc(OCCCN2CCCCC2)cc1)N1CCN(C(=O)N2CCCC2)CC1 [Example E88, 1-[4-(3-Piperidin-1-ylpropoxy)benzoyl]-4-(pyrrolidine-1-carbonyl)-piperazine Hydrochloride] | < 3.16 |
| O=C(c1ccc(OCCCN2CCCCC2)cc1)N1CCN(C(=O)c2cccs2)CC1 [Example E59, 1-[4-(3-Piperidin-1-ylpropoxy)benzoyl]-4-(thiophen-2-carbonyl)-piperazine Hydrochloride] | < 3.16 |
| O=C(c1ccc(OCCCN2CCCCC2)cc1)N1CCCCC1 [Example E149, N-[4-(3-Piperidin-1-ylpropoxy)benzoyl]piperidine Hydrochloride] | < 3.16 |
| O=C(c1ccc(OCCCN2CCCCC2)cc1)N1CCN(c2ccccc2)CC1 [Example E1, N-[4-(3-Piperidin-1-ylpropoxy)benzoyl]-4-phenylpiperazine dihydrochloride] | < 3.16 |
| O=C(c1ccc(OCCCN2CCCCC2)cc1C(F)(F)F)N1CCCCC1 [Example E155, N-[2-Trifluoromethyl-4-(3-Piperidin-1-ylpropoxy)benzoyl]piperidine Hydrochloride] | < 3.16 |
| O=C(c1ccc(OCCCN2CCCCC2)cc1)N1CCN(C(=O)C2CCCCC2)CC1 [Example E57, 1-[4-(3-Piperidin-1-ylpropoxy)benzoyl]-4-(1-cyclohexanecarbonyl)-piperazine hydrochloride] | < 3.16 |
| O=C1NC2(CCN(C(=O)c3ccc(OCCCN4CCCCC4)cc3)CC2)CN1Cc1ccccc1 [Example E160, 3-Benzyl-8-[4-(3-piperidin-1-ylpropoxy)benzoyl]-1,3,8-triaza-spiro[4.5]-decan-2-one] | < 3.16 |
| C[C@@H]1CN(C(=O)c2ccc(OCCCN3CCCCC3)cc2)C[C@H](C)N1C(=O)c1ccccc1 [Example E100] | < 3.16 |
| O=C(c1ccc(OCCCN2CCCCC2)cc1)N1CCC2(CC1)CN(c1ccccc1)C(=O)CO2 [Example E159, 4-Phenyl-9-[4-(3-piperidin-1-ylpropoxy)benzoyl]-1-oxa-4,9-diazaspiro-[5,5]-undecan-3-one hydrochloride] | < 3.16 |
| O=C(N[C@H]1CCN(C(=O)c2ccc(OCCCN3CCCCC3)cc2)C1)c1cccc2ccccc12 [Example E158, (S)-N-[4-(3-Piperidin-1-ylpropoxy)benzoyl]-3-(naphthalene-1-carboxamidopyrrolidinedihydrochloride] | < 3.16 |
